Key:
[1] = DPPH radical scavenging activity assay; details: test sample 500 µM, DPPH 0.18 mM, 30 min in the dark
Protocol: 2.11. DPPH Radical Scavenging Activity Assay
The DPPH radical scavenging activities of analogs 1–8 were investigated as previously described with minor modification. L-Ascorbic acid was used as a positive control. In brief, 20 µL of analogs (5 mM) in DMSO or 5 mM L-ascorbic acid in distilled water were mixed with 180 µL of 0.2 mM DPPH in methanol in a 96-well microplate. After the microplate had been stored in the dark for 30 min, optical densities (ODs) were measured at 517 nm using a microplate reader (VersaMax®, Molecular Devices, Sunnyvale, CA, USA). DPPH radical scavenging activities were determined using the following formula:DPPH radical scavenging activity (%) = 100 × (Ac − As)/Ac(1) where Ac indicates the optical density of the non-treated control and As indicates the optical density of test sample. Experiments were conducted independently 3 times.
There is a possibility that compounds with antioxidant properties inhibit the oxidations of tyrosinase substrates, such as L-tyrosine and L-dopa, without interacting with the tyrosinase. Melanin production requires many oxidative processes, including the conversion of L-tyrosine to dopaquinone via L-dopa. Therefore, compounds with antioxidant activity have the potential to inhibit melanogenesis. DPPH (2,2-diphenyl-1-picrylhydrazyl) contains a free radical, and DPPH assays are commonly used to assess antioxidant activity. In this experiment, L-ascorbic acid (an antioxidant) was used as a positive control. The assay was conducted at a test sample and L-ascorbic acid concentration of 500 µM and a DPPH concentration of 0.18 mM. After standing test sample/DPPH mixtures for 30 min in the dark, optical densities were measured to evaluate radical scavenging activities.

[2] = molecular target: T1, B16F10 cellular tyrosinase (Mus musculus, UniProt P11344); experiment: Cellular tyrosinase activity assay in α–MSH plus IBMX stimulated B16F10 cells; assay type: cell-based, murine; details: 5, 10, 20 µM, 72 h
T1 construct: B16F10 murine melanoma cells were used as a cellular tyrosinase source; endogenous in cells; host or cells: B16F10 murine melanoma cells (ATCC)
T1 sequence (P11344 19-533): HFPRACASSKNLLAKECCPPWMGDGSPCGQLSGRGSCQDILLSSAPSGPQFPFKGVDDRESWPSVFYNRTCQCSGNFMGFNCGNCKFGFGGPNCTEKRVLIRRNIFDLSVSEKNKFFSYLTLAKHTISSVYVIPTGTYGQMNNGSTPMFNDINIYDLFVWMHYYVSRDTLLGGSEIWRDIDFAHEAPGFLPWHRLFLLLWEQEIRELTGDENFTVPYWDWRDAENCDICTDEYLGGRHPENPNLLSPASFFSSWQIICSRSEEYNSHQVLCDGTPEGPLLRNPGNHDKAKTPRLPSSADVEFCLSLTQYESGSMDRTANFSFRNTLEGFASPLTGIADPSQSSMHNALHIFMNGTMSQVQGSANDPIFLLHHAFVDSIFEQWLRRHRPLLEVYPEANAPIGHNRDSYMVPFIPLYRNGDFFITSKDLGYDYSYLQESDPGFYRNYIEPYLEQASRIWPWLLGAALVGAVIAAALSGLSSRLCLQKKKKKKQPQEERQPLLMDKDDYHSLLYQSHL
Protocol: Cellular Tyrosinase Activity Assay
Briefly, cultured B16F10 cells were seeded in 6-well culture plate at 1 × 10^4 cells/well and incubated for 12 h under cell culture conditions to allow them to adhere to well bottoms. […] Cells were then washed with PBS twice and exposed to a lysis buffer solution (100 µL) comprised of 5 µL of 20% Triton X-100, 5 µL of 2 mM PMSF, and 90 µL of 50 mM phosphate buffer in pH 6.5. Lysates were kept at −80 °C for 30 min, defrosted, and centrifuged at 12,000 rpm for 30 min at 4 °C. Supernatants (80 µL) were mixed with 20 µL of 2 mg/mL of L-dopa in a 96-well plate, and absorbance of each well was measured at 475 nm every 10 min for 1 h at 37 °C using a microplate reader (VersaMax®, Molecular Devices, Sunnyvale, CA, USA). Experiments were performed independently 3 times.
Cellular tyrosinase activities were determined by measuring optical densities at 475 nm.

[3] = tested on: B16F10 murine melanoma cells; experiment: B16F10 cell viability (EZ-Cytox assay); assay type: cell-based
Protocol: 2.8. Viabilities of B16F10 Murine Melanoma Cells Treated with Analogues 2 or 3
The cytotoxic effects of analogs 2 and 3 were examined using B16F10 murine melanoma cells, as previously described. Cell viabilities were determined using the EZ-Cytox cell viability assay kit (Daeil Lab Service Co. Ltd., Seoul, Korea). Briefly, B16F10 cells (density 1 × 10^4 cells/well) were added to the wells of a 96-well microplate and cultured in a humidified 5% CO2 atmosphere at 37 °C for 24 h. Cells were then exposed to analogs 2 or 3 at 0, 1, 2, 5, 10, or 20 µM and incubated in a humidified 5% CO2 atmosphere for 24, 48, or 72 h at 37 °C. At these time points, cells were exposed to 10 µL of EZ-Cytox solution and incubated for 2 h at 37 °C. Optical densities of wells were then measured at 450 nm using a microplate reader (VersaMax®, Molecular Devices, Sunnyvale, CA, USA) to assess cell viability. Experiments were conducted independently 3 times.
Since analogs 2 and 3 had potent inhibitory effects on mushroom tyrosinase, they were subjected to B16F10 murine melanoma cytotoxicity assays. Initially, the cytotoxicities of 2 and 3 were investigated at concentrations of 0, 1, 2, 5, 10, and 20 µM using the EZ-Cytox cell viability assay (EZ-3000; DoGenBio, Seoul, Korea). Cell viability was measured after treatment for 24, 48, or 72 h (Figure 6).

[4] = molecular target: mushroom tyrosinase; experiment: Mushroom tyrosinase inhibition in the presence of L-dopa; assay type: biochemical; details: L-dopa as substrate
[5] = ABTS cation radical scavenging activity assay; details: test sample 100 µM, 2 min in the dark
Protocol: 2.12. ABTS Cation Radical Scavenging Activity Assay
The free radical scavenging activities of analogs 1–8 and Trolox were determined using an ABTS radical cation decolorization assay (SEJIN CI Co., Seoul, Korea), as previously described with minor modification. Trolox was used as the positive control. ABTS radicals were produced by adding 10 mL of 7 mM ABTS in distilled water to 10 mL of 2.45 mM aqueous potassium persulfate solution. The mixture was kept in the dark for 12–16 h at RT until the reaction was complete and absorbance had stabilized. The prepared free radical solution was then diluted with methyl alcohol so that the optical density at 734 nm was 0.70 ± 0.02. Test samples (10 µL, final concentration at 100 µM) dissolved in EtOH/DMSO (9:1 v/v) were added to the diluted free radical solution (90 µL) in a 96-well plate. After standing at RT for 2 min in the dark, well absorbances were measured at 734 nm, and ABTS radical scavenging activities were calculated using the following formula:ABTS free radical scavenging activity (%) = (Ac − As) × 100/Ac(2) where Ac indicates the absorbance of the non-treated control, and As indicates the absorbances of test samples. Experiments were conducted independently 3 times.
The ABTS (2,2′-azino-bis(3-ethylbenzothiazoline-6-sulfonic acid)) cation radical scavenging assay is also commonly used to evaluate antioxidant effects. ABTS is converted to the ABTS radical cation by the transfer of one electron to potassium persulfate. Trolox was used as the positive control, and assays were performed at a test sample (analogs 1–8 and Trolox) concentration of 100 µM. The ABTS radical solution obtained by a reaction of ABTS with potassium persulfate was mixed with test samples and left in the dark for 2 min. ABTS radical scavenging abilities were evaluated by measuring absorbances at 734 nm. […] On the other hand, analog 1 with a 4-hydroxyphenyl group, and analogs 7 and 8 with bromo substituents on the β-phenyl ring weakly scavenged the ABTS radical (16.6–24.8% scavenging). […] Furthermore, the results for ABTS and DPPH radical scavenging activities were similar.

Structure (SMILES): O=C1/C(=C/c2ccc(O)cc2O)SC(=S)N1C1CCCCC1 [Analog 3, (Z)-3-Cyclohexyl-5-(2,4-dihydroxybenzylidene)-2-thioxothiazolidin-4-one]
- DPPH radical scavenging activity [1]: 73%
- effect on α–MSH plus IBMX induced increase in cellular tyrosinase activity [2]: significantly and dose-dependently reduced
- cytotoxicity in B16F10 cells, any concentration or time ([3]; 1, 2, 5, 10, 20 µM, 24, 48, 72 h): not cytotoxic
- IC50 [4]: 10.6 ± 2.92 µM
- ABTS radical scavenging activity [5]: 72.1%

Structure (SMILES): O=C1/C(=C/c2ccc(O)c(O)c2)SC(=S)N1C1CCCCC1 [Analog 2, (Z)-3-Cyclohexyl-5-(3,4-dihydroxybenzylidene)-2-thioxothiazolidin-4-one]
- DPPH radical scavenging activity [1]: 92%
- cytotoxicity in B16F10 cells, 24 h ([3]; 1, 2, 5, 10, 20 µM, 24 h): cytotoxic at 20 µM
- cytotoxicity in B16F10 cells, 48 h and 72 h ([3]; 1, 2, 5, 10, 20 µM, 48 h and 72 h): cytotoxic at all concentrations
- IC50 [4]: 39.7 ± 3.43 µM
- ABTS radical scavenging activity [5]: 81.0%

Source: publication PMC9598926, “Design and Synthesis of (Z)-5-(Substituted benzylidene)-3-cyclohexyl-2-thioxothiazolidin-4-one Analogues as Anti-Tyrosinase and Antioxidant Compounds: In Vitro and In Silico Insights” (Antioxidants, 2022)
